What is called IC50 is the concentration needed to halve the response being measured. What is called EC50 is the concentration needed to bring the measured effect to its halfway point. Read a low EC50 as higher potency in that assay.

The target in one test is T1, human S1P1 (Homo sapiens, UniProt P21453).
T1 construct: expressed in transfected cells; host or cells: CHO cells
The test can be described thus: S1P1 Binding Assay (33P-S1P radioligand competition, CHO cell membranes). Particulars: membranes from CHO cells expressing human S1P1; 0.03 nM 33P-S1P; 60 min room temperature. The protocol:
Membranes were prepared from CHO cells expressing human S1P1. Cells were dissociated in buffer containing 20 mM HEPES, pH 7.5, 50 mM NaCl, 2 mM EDTA and Protease Inhibitor cocktail (Roche), and disrupted on ice using the Polytron homogenizer. The homogenate was centrifuged at 20,000 rpm (48,000 g) and the supernatant was discarded. The membrane pellets were resuspended in buffer containing 50 mM HEPES, pH 7.5, 100 mM NaCl, 1 mM MgCl2, 2 mM EDTA and stored in aliquots at −80° C. after protein concentration determination.
Membranes ([…]) and 0.03 nM final concentration of ^33P—S1P ligand (1 mCi/ml, American Radiolabeled Chemicals) were added to the compound plates. Binding was performed for 60 min at room temperature, terminated by collecting the membranes onto GF/B filter plates, and radioactivity was measured by TOPCOUNT®. The competition data of the test compounds over a range of concentrations was plotted as percentage inhibition of radioligand specific binding. The IC50 is defined as the concentration of competing ligand needed to reduce specific binding by 50%.
Compounds of the present invention and Comparative Compound A were tested in the S1P1 binding assay described hereinabove and the results rounded to two digits, shown in Table A were obtained. In some instances, the value is an average of multiple experiments where N is the number of experiments conducted that provided satisfactory dose response curves. When more than one batch of an example was tested, the value presented is from the batch which allowed a comparison of GTPγS S1P1 and GTPγS S1P3 in Method A (Data shown in Table B). Data was not averaged across different batches of an example compound.

In test [1] the target is T2, S1P1 (membranes from S1P1/CHO cells) (Homo sapiens, UniProt P21453).
T2 construct: expressed in transfected cells; host or cells: S1P1/CHO cells
In words: Method A: Receptor [35S] GTPγS Binding Assay, S1P1. Format: biochemical. Particulars: Method A; S1P1/CHO membranes. The protocol: Method A: Receptor [35S] GTPγS Binding Assays
Compounds were loaded in a 384 Falcon v-bottom plate (0.5 μl/well in a 3-fold dilution). Membranes prepared from S1P1/CHO cells or EDG3-Gal5-bla HEK293T cells were added to the compound plate (40 μl/well, final protein 3 μg/well) with MULTIDROP®. [^35S]GTP (1250 Ci/mmol, Perkin Elmer) was diluted in assay buffer: 20 mM HEPES, pH 7.5, 10 mM MgCl2, 150 mM NaCl, 1 mM EGTA, 1 mM DTT, 10 μM GDP, 0.1% fatty acid free BSA, and 10 μg/ml Saponin to 0.4 nM. 40 μl of the [^35S] GTP solution was added to the compound plate with a final concentration of 0.2 nM. The reaction was kept at room temperature for 45 min. At the end of incubation, all the mixtures in the compound plate were transferred to a 384 well FB filter plates via GPCR robot system. The filter plate was washed with water 4 times by using the modified manifold Embla plate washer and dried at 60° C. for 45 min. 30 μA of MicroScint 20 scintillation fluid was added to each well for counting at Packard TOPCOUNT®. EC50 is defined as the agonist concentration that corresponds to 50% of the Ymax (maximal response) obtained for each individual compound tested.
(§1) Compounds of the present invention and Comparative Compound A were tested in the Receptor [35S] GTPγS Binding Assays (Method A) and Receptor [35S] In some instances, the value is an average of multiple experiments where N is the number of experiments conducted that provided satisfactory dose response curves. When more than one batch of an example was tested, the value presented is from a batch which allowed a comparison of GTPγS S1P1 and GTPγS S1P3 in which the most number of experiments were performed. Preferably, the same batch was examined in Method A and Method B. Data was not averaged across different batches of an example compound.
In general terms: GTPγS is a poorly hydrolysed GTP analogue; its binding reports G protein activation.

The target in test [2] is T3, S1P1 (membranes from S1P1 transfected CHO cells) (Homo sapiens, UniProt P21453).
T3 construct: expressed in transfected cells; host or cells: CHO cells
The test can be described thus: Method B: Receptor [35S] GTPγS SPA Binding Assay, S1P1. In kind it is biochemical. The protocol: (§2) Method B: Receptor [35S] GTPγS SPA Binding Assays
(§3) Membranes prepared from S1P1 or S1P3 transfected CHO cells ([…]) were incubated in 96-well white plates (CORNING® 3693) with test compounds diluted in DMSO, in 50 μl of reaction mixture containing 7.5 μl WGA-PVT beads (20 mg/ml), and 5 μM GDP, 20 mM HEPES pH 7.4, 100 mM NaCl, 1 mM EDTA, 5 mM MgCl2, 10 μg/ml saponin, 0.1% BSA, and 1 μM leupeptin. The assay was initiated with the addition of […] of 0.2 nM [^35S]-GTPγS (1250 Ci/mmol; NEN) in assay buffer. After 90 min incubation at room temperature, spin the plate at 1000 rpm for 5 min. The bound radionuclides were measured at TOPCOUNT®, expressed as % response relative to S1P (1 μM) activation. Data was analyzed using the four parameter logistic equation in Excel. The four parameters in the equation, Y=A+((B−A)/(1+((EC50/X)^D))), are described as following: A is the Y value (agonist activity) at the bottom plateau; B is the Y value at the top plateau; EC50 is the X value (agonist concentration) when the response is halfway between bottom and top; D is Hill coefficient. Curves were not generated for compounds having Ymax values were below 50%.
as §1

The target of test [3] is T4, S1P3 (membranes from S1P3 transfected CHO cells) (Homo sapiens, UniProt Q99500).
T4 construct: expressed in transfected cells; host or cells: CHO cells
The test can be described thus: Method B: Receptor [35S] GTPγS SPA Binding Assay, S1P3. In kind it is biochemical. The protocol:
as §2, §3, §1

Test [4] concerns circulating lymphocytes. The test can be described thus: Blood Lymphocyte Reduction Assay (BLR) in rats. Format: in vivo. Particulars: Lewis rats, oral, vs vehicle group. The protocol: (§4) Blood Lymphocyte Reduction Assay (BLR) in Rodents
(§5) Lewis rats or BALB/c mice were dosed orally with test article (as a solution or suspension in the vehicle) or vehicle alone (polyethylene glycol 300, “PEG300”). Blood was drawn at 4 hr and 24 h by retro-orbital bleeding. Blood lymphocyte counts were determined on an ADVIA® 120 Hematology Analyzer (Siemens Healthcare Diagnostics). The results were measured as a reduction in the percentage of circulating lymphocytes as compared to the vehicle treated group at the 4 hr and 24 hr measurement. The results represent the average results of all animals within each treatment group (n=3-4).
(§6) A compound of the present invention was tested in the Blood Lymphocyte Reduction assay (BLR) described hereinabove and the results are shown in Table D for rats and Table E for mice.

For test [5], the system named is circulating lymphocytes. In words: Blood Lymphocyte Reduction Assay (BLR) in mice. In kind it is in vivo. Particulars: BALB/c mice, oral, vs vehicle group. The protocol:
as §4, §5, §6

The structures appear in SMILES notation.

T3 sequence (P21453 whole entry): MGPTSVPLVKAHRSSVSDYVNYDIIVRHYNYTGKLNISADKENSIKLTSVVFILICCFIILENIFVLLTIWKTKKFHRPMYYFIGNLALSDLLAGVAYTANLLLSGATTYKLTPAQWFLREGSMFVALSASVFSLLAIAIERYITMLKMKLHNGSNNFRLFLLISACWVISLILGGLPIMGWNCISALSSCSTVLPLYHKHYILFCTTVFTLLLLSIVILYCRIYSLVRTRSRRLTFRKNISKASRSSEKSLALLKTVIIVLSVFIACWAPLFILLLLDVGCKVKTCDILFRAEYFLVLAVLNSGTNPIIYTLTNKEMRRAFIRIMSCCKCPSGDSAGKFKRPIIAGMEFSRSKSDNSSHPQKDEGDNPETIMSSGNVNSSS
T1 sequence (P21453 whole entry): as above
T2 sequence (P21453 whole entry): as above
T4 sequence (Q99500 whole entry): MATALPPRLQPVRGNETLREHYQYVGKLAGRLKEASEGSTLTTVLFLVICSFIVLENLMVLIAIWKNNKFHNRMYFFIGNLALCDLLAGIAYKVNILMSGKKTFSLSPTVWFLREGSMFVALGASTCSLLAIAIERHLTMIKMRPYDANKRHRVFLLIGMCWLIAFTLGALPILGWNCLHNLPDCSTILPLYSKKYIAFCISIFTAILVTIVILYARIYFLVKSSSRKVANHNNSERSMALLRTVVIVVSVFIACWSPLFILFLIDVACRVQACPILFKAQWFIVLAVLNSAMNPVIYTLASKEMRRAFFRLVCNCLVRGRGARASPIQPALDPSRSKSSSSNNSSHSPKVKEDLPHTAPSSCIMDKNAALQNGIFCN

Turning to `O=C(O)C1CN(Cc2ccc(-c3noc(-c4onc(-c5ccccn5)c4C(F)(F)F)n3)cc2)C1` [Example 1, 1-(4-(5-(3-(Pyridin-2-yl)-4-(trifluoromethyl)isoxazol-5-yl)-1,2,4-oxadiazol-3-yl)benzyl)azetidine-3-carboxylic acid], the IC50 on human S1P1 turned out to be 0.21 nM. The half-maximal effective concentration (EC50) is 1.4 nM in test [1]; 0.17 nM in test [2] (Method B SPA, S1P1 transfected CHO membranes); 6200 nM in test [3]. Moreover, in test [2] (ratio of GTPγS S1P3 EC50 to GTPγS S1P1 EC50, Method B), the “GTPγS S1P3/S1P1 (Method B)” value was 37,000. Besides, the “% reduction in lymphocytes at 4 hr.” value in the test on circulating lymphocytes [4] (0.3 mg/kg) is reported as 82%; in the test with circulating lymphocytes [4] (1.0 mg/kg) it was 85%; in the test with circulating lymphocytes [5] (0.008 mg/kg), 13%; in the test with circulating lymphocytes [5] (0.04 mg/kg) it was 67%; with circulating lymphocytes [5] (0.2 mg/kg), 82%; in the test with circulating lymphocytes [5] (1.0 mg/kg), 83%. For the same molecule, the “% reduction in lymphocytes at 24 hr.” value with circulating lymphocytes [4] (0.3 mg/kg) was 48%; in the test with circulating lymphocytes [4] (1.0 mg/kg), 80%; in the test on circulating lymphocytes [5] (0.008 mg/kg), 8%; with circulating lymphocytes [5] (0.04 mg/kg), 39%; in the test on circulating lymphocytes [5] (0.2 mg/kg), 74%; in the test with circulating lymphocytes [5] (1.0 mg/kg), 77%.

The values are drawn from patent US8404672B2, “Substituted heterocyclic compounds” (Bristol-Meyers Squibb Company, priority 2009, dated 2013).
